We go through two molecules from US20140227333A1, “DRY ACTIVE OXYGEN TECHNOLOGY” (ECOLAB USA INC., priority 2013, published 2014).

Read-outs that look alike come from different tables or passages of the source.

For data set [1] the following is noted: cited from earlier work.
The nature of data set [2]: Titration of hydrogen peroxide concentration, initially and 24 hours later (stability of the active oxidant). Conditions: titrated initially and 24 hours later. Format: physicochemical. The protocol: The dry-to-touch powder compositions generated in Example 2 were further analyzed for stability of the active oxidant. The compositions were titrated initially and 24 hours later, giving nearly the same resulting amount of hydrogen peroxide concentration in the untreated liquid composition (35%) and the dry-to-touch powder composition (31%).

polyethyleneimine [PEI]: the PEI protonated entry in data set [1] (pH 2) is reported as “about 73%”; in data set [1] (pH 4), “about 50%”; in data set [1] (pH 5), “about 33%”; in data set [1] (pH 8) it was “about 25%”; in data set [1] (pH 10), “about 4%”.
In turn, `OO` [liquid hydrogen peroxide (35%), hydrogen peroxide] gave a hydrogen peroxide concentration in data set [2] of 35%.
